Test results from patent US9561234B2, “Methods for treating diseases of the retina” (Allergan, Inc., priority 2010, dated 2017).
Entries after “also recorded” stand apart in the source; their conditions may differ.

Tests used:
ARPE-19 cells = assay: Cell viability assay: protection of RPE cells from tBH oxidative stress; assay type: cell-based; conditions: for PROTECTION (%) AT 10 uM: protection of RPEs from oxidative stress (0.3 mM tBH), ARPE-19 cells
Experimental: (§1) ARPE-19 cells from ATCC were grown in DEME/F12 medium supplemented with 10% Fetal Bovine Serum (FBS) and split into 96-well plates at a density of 10,000 cells per well. Cells were incubated overnight in 0.1% FBS medium before addition of compound/drug. Stocks of compounds of interest were made at different concentrations and added to ARPE-19 cells in 0.1% FBS medium for one hour.
After one hour of compound/drug pretreatment, cells were incubated with 0.3 mM tert-butyl hydroperoxide (tBH) for 3 hours followed by three times of washing and replacement with fresh drug and medium (0.1% FBS medium) for overnight. […] Error bars, SEM. n=3.

[1] = system: C57B6 mice with oxygen-induced retinopathy; assay: Oxygen-induced retinopathy (hyperoxia): retinal neovascularization; assay type: in vivo; conditions: gavage once daily P10 through P16; evaluated on P17; FIG. 10
Experimental: Litters of newborn mice and their dams were placed in a 75% oxygen chamber from P7 to P12. The chamber contained enough food and water for 5 days and was opened only to allow drug administration to the animals. The mice were returned to room air with normal oxygen content on P12. Olanzapine in water or VEH (water) was administered once daily by gavage beginning on P10 and continuing through P16. Retinal neovascularization was evaluated on P17 after 5 days of exposure of the animals to room air. Error bars, SEM.
Oxygen-induced retinopathy (OIR)/Hyperoxia was induced in C57B6 mice using the protocol reported by Smith et al. (Smith L E, Wesolowski E, McLellan A, et al. Oxygen-induced retinopathy in the mouse. Invest Ophthalmol Vis Sci. 1994; 35(1):101-111). […] Retinal neovascularization was evaluated on P17 after 5 days of exposure of the animals to room air.
Retinal neovascularization was evaluated by angiography in mice subjected to OIR as described previously (Smith L E, Wesolowski E, McLellan A, et al. Oxygen-induced retinopathy in the mouse. Invest Ophthalmol Vis Sci. 1994; 35(1):101-111). […] Quantification of retinal neovascularization was performed as described previously (Chen J, Connor K M, Aderman C M, Smith L E. Erythropoietin deficiency decreases vascular stability in mice. J Clin Invest. 2008; 118(2):526-533). […]

[2] = system: laser induced choroidal neovascularization in rats; assay: Choroidal neovascularization (CNV) assay, laser induced; assay type: in vivo, Brown Norway rats; conditions: i.p. 1 mg/kg once a day for 3 days plus intravitreal day 1, 4 & 6; 11 days after laser; FIG. 11
Experimental: Brown Norway rats (Charles Rivers), weighing 250-300 grams each were used in the study. Drug treatment was started 2 days prior to Laser treatment. Olanzapine was given i.p. (1 mg/kg) once a day for 3 days (day −2, −1 & 0). The last dose on day 0 was delivered about 1 hr before laser treatment. Phosphate buffered saline (PBS) was used for parallel control vehicle IP injection. On day zero of the laser procedure, rat eyes (pupil) were dilated with Tropicamide HCl HCl (1%) and Ak-dilate (10%). Rats were then anesthetized with intramuscular injection of 40 mg/ml Ketamine HCL and 12 mg/ml Xylazine HCl. The fundo's was visualized using a microscope slide coverslip with Refresh Liquigel eye drops as an optical coupling agent. For each animal, 6 laser spots in each eye (360 mW power, 0.07 sec. duration, 50 μm spot size) were made with argon laser (Coherent Inc.; Santa Clara, Ca.) concentrically at approximately equal distances around the optic disc, between every 2 retinal vessels. A single 5-ul volume of the drug (olanzapine) or PBS was injected into the vitreous cavity at day 1, 4 & 6 post-laser photocoagulation procedure. At 11 days after laser treatment, animals were sacrificed by CO2 exposure and CNV formation was assayed as described previously. […] The area of fluorescence was quantified using Metamorph image analysis software (RPI, Natick, Mass.).

[3] = system: IL-8 secretion from RPE cells (ARPE-19); assay: IL-8 assay: Poly I:C induced IL-8 secretion from RPE cells; assay type: cell-based; conditions: 1 ug/ml poly I:C, 24 hours; FIG. 1B
Experimental: as §1
After one hour of drug pretreatment, cells were incubated with 1 ug/ml polyl:C for 24 hours. The cell culture supernatant was used to measure IL-8 production with IL-8 ELISA Kit (R&D Systems, D8000C). Error bars, SEM. n=3.

blue light exposed rats [4] = assay: H&E staining and immuno-histochemistry of rat ocular tissue after blue light exposure; assay type: in vivo, Sprague-Dawley rats; conditions: IP, 2-3 wks after blue light exposure
Experimental: (§2) Four to five month old Sprague-Dawley (SD) male rats were used in the following study. Drug treatment was started 2 days before blue light exposure. Animals received olanzapine IP injection once per day for 3 days and the last dosing was 1 hour before blue light exposure.
(§3) For intravitreal injection (IVT), animals received olanzapine (having the structure shown below) 1 hour before blue light exposure. For topical administration, the drug was given 24 hours (BID) and one hour (QI) before blue light exposure. Water was used for parallel control vehicle IP/IVT injection or topical administration. Rats were dark adapted for 24 hours before they were exposed to blue light with lux intensity of ˜6-7 k for 4 hours. Right after the blue light exposure, the rats were dark adapted again for another 3 days before returning to normal room light (12-hour light/12-hour dark). Optical coherence tomography (OCT) was used to evaluate the retinal thickness change caused by blue light at 7-10 days post blue light exposure. Error bars, SEM. (FIG. 3).
Sprague-Dawley male rats 2-3 weeks after blue light exposure were euthanized with CO2 and orbits enucleated. Eyes were fixed in Davidson's fixative overnight at room temperature and transferred to 70% ethanol for 24 hrs. Further tissue processing was done by serial dehydration in 80%, 95% & 100% alcohol and Propar, followed by paraffin embedding. Whole rat eyes were transversely cut in the vertical meridian proceeding from nasal to temporal side, using a Microtome (RM2255; Leica Microsystems). Using optic nerve head as the landmark, a total of 45 serial sections with 5 microns/section were collected on 15 glass slides. Slide #s 1, 5, 10 & 15 were deparaffinized and sequentially stained using hematoxylin (nucleus) and eosin (cytoplasm) as per standard protocol to compare photoreceptor/RPE lesion between experimental groups. The rest of the slides were used to determine expressions of Rhodopsin, RPE65 and GFAP using the specific antibodies by standard immune-histochemistry techniques.

blue light exposed rats [5] = assay: Blue light study: retinal thickness by optical coherence tomography; assay type: in vivo, Sprague-Dawley (SD) rats; conditions: IP once per day for 3 days; OCT 7-10 days post blue light; FIG. 3
Experimental: Drug treatment was started 2 days before blue light exposure. Animals received olanzapine IP injection once per day for 3 days and the last dosing was 1 hour before blue light exposure. Rats were dark adapted for 24 hours before they were exposed to blue light with lux intensity of ˜6-7 k for 4 hours. Right after the blue light exposure, the rats were dark adapted again for another 3 days before returning to normal room light (12-hour light/12-hour dark). Optical coherence tomography (OCT) was used to evaluate the retinal thickness change caused by blue light at 7-10 days post blue light exposure. Error bars, SEM. OS=Left Eye, OD=Right Eye.
as §2
For intravitreal injection (IVT), animals received olanzapine (having the structure shown below) 1 hour before blue light exposure. For topical administration, the drug was given 24 hours (BID) and one hour (QI) before blue light exposure. Water was used for parallel control vehicle IP/IVT injection or topical administration. Rats were dark adapted for 24 hours before they were exposed to blue light with lux intensity of ˜6-7 k for 4 hours. […]

blue light exposed rats [6] = assay: Electroretinography (ERG) assay after blue light exposure; assay type: in vivo, Sprague-Dawley (SD) rats
Experimental: as §2, §3
Bilateral Flash Electroretinograms were recorded in SD rats using the Espion E^2 electroretinography system. On the day of ERG, Animals were dark adapted for at least 30 minutes. Their eyes were dilated with Tropicamide HCl (1%) and Ak-dilate (10%). Prior to ERG recording, the animal was anesthetized with intramuscular injection of 40 mg/ml Ketamine HCl and 12 mg/ml Xylazine HCl, and placed onto heated platform. The ground needle was placed in the skin under the arm and the reference needle was place in the skin above the head. Retinae were stimulated using 1 cd.s/m2 flash for an average of 10 traces at 0.1 Hz. Recording filter was set at 300 Hz. ERG responses were analyzed using Espion E^2, and Microsoft excel program. The b-wave amplitude was measured from the trough of the a-wave to the peak of the b-wave, and the a-wave was measured as the difference in amplitude between recording at onset and the trough of the negative deflection. Error bars, SEM. (FIGS. 4, 8, and 9).

Cc1cc2c(s1)Nc1ccccc1N=C2N1CC[N+](C)([O-])CC1 [Metabolite A, Olanzapine-N-oxide]
PROTECTION (%) AT 10 uM (ARPE-19 cells): 103%

Cc1cc2c(s1)Nc1ccccc1N=C2N1CCNCC1 [Metabolite B, N-desmethyl olanzapine]
PROTECTION (%) AT 10 uM (ARPE-19 cells): 129%

Cc1cc2c(s1)Nc1ccccc1N=C2N1CCN(C)CC1 [Olanzapine, 2-methyl-4-(4-methylpiperazin-1-yl)-10H-benzo[b]thieno[2,3-e][1,4]diazepine]
attenuation of hyperoxia induced retinal neovascularization [1]: significantly attenuates
inhibition of laser induced choroidal neovascularization [2]: significantly inhibits
inhibition of Poly I:C induced IL-8 secretion from RPE cells [3]: inhibits
PROTECTION (%) AT 10 uM (ARPE-19 cells): 116%
protection of RPE cells from oxidative stress (tBH) induced apoptosis / cell death (ARPE-19 cells; tBH, RPE cells, FIGS. 1A, 2): significantly protects in a dose responsive fashion; also recorded: protect
protection of outer nuclear layer (H&E staining) (blue light exposed rats [4]; FIG. 5): significantly protects
protection from retinal rhodopsin loss (immuno-histochemistry) (blue light exposed rats [4]; FIG. 6): significantly protects
inhibition of GFAP upregulation (immuno-histochemistry) (blue light exposed rats [4]; FIG. 7): partially inhibits
protection from RPE65 loss (immuno-histochemistry) (blue light exposed rats [4]; FIG. 7): significantly protects
protection of superior retinal thickness (OCT) (blue light exposed rats [5]): significantly protects
protection of retinal a- and b-waves (ERG) (blue light exposed rats [6]; IP once per day for 3 days, ERG 7-10 days post blue light, FIG. 4): significantly protects
prevention of ERG alteration (blue light exposed rats [6]; intravitreal, 0.04, 0.2, or 1 ug/eye, 1 hour before blue light, ERG 7-10 days post, FIG. 8): significantly prevents
protection of retinal a- and b-wave signals (ERG) (blue light exposed rats [6]; topical ocular dosing 24 hours (BID) and one hour before blue light, ERG 7-10 days post, FIG. 9): significantly protects

Clc1ccc2c(c1)N=C(N1CCNCC1)c1ccccc1N2 [n-desmethly clozapine, N-desmethyl clozapine]
PROTECTION (%) AT 10 uM (ARPE-19 cells): 77%
